# Reference: patent EP4678638A1, “NEW E3 UBIQUITIN LIGASE LIGAND, PROTEIN DEGRADATION AGENT AND USE THEREOF” (priority 2023, dated 2024)
# Read-outs that look alike come from different tables or passages of the source.
# Assays:
# H2228 = experiment: CCK-8 proliferation, NCI-H2228 (H2228); format: cell-based; conditions: Homo sapiens, NCI-H2228; CCK-8; 96 hours; read-out: Inhibitory activity (IC50) on tumor cell proliferation, H2228
# Method in brief: (§1)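 Tumor cells were cultured at 37°C with 5% CO2, seeded, and after 24h treated with compounds at 10 concentrations starting at 10µM (5-fold serial dilutions).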
# PC-9 = experiment: CCK-8 proliferation, PC-9; format: cell-based, Human; conditions: Homo sapiens, PC-9; CCK-8; 96 hours; read-out: Inhibitory activity (IC50) on tumor cell proliferation, PC-9
# Procedure: (§2) The tumor cells used herein were cultured in a cell culture medium listed in table A1 at 37°C in an incubator with 5% CO2. Prior to experimentation, all cell lines used were correctly identified by STR profiling, and tested negative for mycoplasma contamination using a mycoplasma detection kit through routine screenings. Table A1. Tumor cells and cell culture medium used in the present disclosure
# (§3) IC50 values of the compounds of the present disclosure (including the compounds in Table 1, and compounds of examples) were measured using the Meilun Cell Counting Kit-8 kit from Dalian Meilun Biotech Co., Ltd. Assay details are as follows: tumor cells were seeded in a 96-well plate at a density listed in Table A2. After 24h, 100 µL of the inoculated cells were treated with 0.5µL of the compounds of the present disclosure (including the compounds in Tables 1 and 2, and compounds of examples) at 10 different successively decreasing concentrations (starting at the highest concentration of 10µM; 5-fold serial dilutions). After the cells were treated with the compounds of the present disclosure for a period of time, the cell viability detection reagent was added to the culture medium for cell viability assessment according to the instructions provided with the CCK-8 kit. […] The growth inhibition of the compounds of the present disclosure on cells was plotted by Prism Graphpad software, and the IC50 values of the compounds of the present disclosure were calculated therefrom. […] Seeding protocol and treatment time for tumor cells
# CDK4 = molecular target: T1, CDK4 (Homo sapiens, UniProt P11802); experiment: Western blot degradation of CDK4 (MDA-MB-231 Cell); format: cell-based; conditions: Table D3
# T1 construct: evaluate the effects of the compounds of the present disclosure on the expression of target proteins in cells; endogenous in cells; host or cells: MDA-MB-231
# Procedure: (§4) Conventional Western blot assay was performed to evaluate the effects of the compounds of the present disclosure on the expression of target proteins in cells.
# (§5) (1) Cell Seeding and Protein Harvesting: The selected cells were processed according to the cell seeding procedure and protein harvesting procedure in Table III-2. Table III-2 Cell Seeding and Protein Harvesting Procedures
# (§6) (2) To the collected supernatant, 5X SDS sample loading buffer was added, followed by denaturation at 95°C for 5 minutes. The denatured samples were then separated by SDS-PAGE electrophoresis on a polyacrylamide gel. Proteins were transferred to a nitrocellulose membrane (0.45 µm NC membrane), blocked with blocking buffer at room temperature for 1 hour, and subjected to antibody incubation and development procedures according to the antibody manufacturer's instructions (Cell Signaling Technology).
# (§7) Half-Maximal Degradation Concentration value (the drug concentration required for degrading proteins by 50%, abbreviated as DC50) reads method: comparing the grayscale values of Western blot bands from drug-treated samples with those from blank DMSO-treated controls, and identifying the drug concentration range at which the grayscale value is half that of the DMSO-treated control bands.
# (§8) DC50 values can be calculated using ImageJ software to measure grayscale values of Western blot bands from drug-treated samples. The concentration-response curve is fitted to estimate the drug concentration corresponding to half the grayscale value.
# (§9) Target protein remaining (%) refers to the percentage of target protein remaining in hPBMC cells after treatment with protein degrader compounds.
# (§10) Calculation method for target protein remaining (%): Use ImageJ software to measure grayscale values of Western blot bands from drug (protein degrader)-treated samples. The grayscale value of drug-treated bands is divided by that of internal control protein bands, and the resulting quotient is normalized to obtain the relative percentage of remaining target protein after protein degrader treatment.
# (§11) Target protein degradation rate (%) = 100% - target protein remaining (%).
# CDK6 = molecular target: T2, CDK6 (Homo sapiens, UniProt Q00534); experiment: Western blot degradation of CDK6 (MDA-MB-231 Cell); format: cell-based; conditions: Table D3
# T2 construct: evaluate the effects of the compounds of the present disclosure on the expression of target proteins in cells; endogenous in cells; host or cells: MDA-MB-231
# Procedure: as §4, §5, §6, §7, §8, §9, §10, §11
# MV-4-11 = experiment: CCK-8 proliferation, MV-4-11; format: cell-based, Human; conditions: Homo sapiens, MV4-11
# Procedure: as §2, §3
# CCRF-CEM = experiment: CCK-8 proliferation, CCRF-CEM; format: cell-based, Human; conditions: Homo sapiens, CCRF-CEM; CCK-8; 96 hours; read-out: Inhibitory activity (IC50) on tumor cell proliferation, CCRF-CEM
# Procedure: as §2, §3
# H1975 = experiment: CCK-8 proliferation, NCI-H1975 (H1975); format: cell-based, Human; conditions: Homo sapiens, NCI-H1975; CCK-8; 96 hours; read-out: Inhibitory activity (IC50) on tumor cell proliferation, H1975
# Method in brief: as §1
# SR = experiment: CCK-8 proliferation, SR; format: cell-based, Human; conditions: Homo sapiens; Table B10, compounds designed based on the IRAK4 inhibitors; SR cells; read-out: Inhibitory activity (IC50, nM) on tumor cell proliferation, SR
# Method in brief: as §1
# [1] = CCK-8, 72 or 96 hours, read-out: Inhibitory activity (IC50) on tumor cell proliferation, MV-4-11
# T1 sequence (P11802 whole entry): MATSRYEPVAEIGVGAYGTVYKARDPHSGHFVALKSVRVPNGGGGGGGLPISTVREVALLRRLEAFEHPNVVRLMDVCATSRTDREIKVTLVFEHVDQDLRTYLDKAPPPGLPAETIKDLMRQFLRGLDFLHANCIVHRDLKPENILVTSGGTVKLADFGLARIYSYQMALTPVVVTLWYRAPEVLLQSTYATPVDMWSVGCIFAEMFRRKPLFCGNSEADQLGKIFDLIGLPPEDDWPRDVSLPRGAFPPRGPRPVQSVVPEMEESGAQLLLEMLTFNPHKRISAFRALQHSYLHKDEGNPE
# T2 sequence (Q00534 whole entry): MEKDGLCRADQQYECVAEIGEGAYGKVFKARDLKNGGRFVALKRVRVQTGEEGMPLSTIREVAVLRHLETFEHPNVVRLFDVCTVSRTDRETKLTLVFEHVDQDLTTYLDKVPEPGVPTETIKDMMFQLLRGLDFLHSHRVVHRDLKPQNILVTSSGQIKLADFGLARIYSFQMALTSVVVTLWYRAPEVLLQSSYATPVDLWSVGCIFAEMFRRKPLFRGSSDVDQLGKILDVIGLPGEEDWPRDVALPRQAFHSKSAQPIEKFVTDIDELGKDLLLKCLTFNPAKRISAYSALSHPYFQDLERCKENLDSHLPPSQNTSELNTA
Compound,IC50 (H2228) [nM],IC50 (PC-9) [nM],Degradation of substrate protein CDK4 (substrate protein remaining %) (CDK4),Degradation of substrate protein CDK6 (substrate protein remaining %) (CDK6),IC50 (H1975) [nM],further results
"CN1CCN([C@@H]2CCCN(c3cnc(C(N)=O)c(Nc4ccc(C5CCN(Cc6ccc(C7CCC(=O)NC7=O)c(F)c6)CC5)cc4)n3)C2)C1=O (stereo partly drawn) [GT-04799, 3-((4-(1-(4-(2,6-dioxopiperidin-3-yl)-3-fluorobenzyl)piperidin-4-yl)phenyl)amino)-5-((R)-3-(3-methyl-2-oxoimidazolidin-1-yl)piperidin-1-yl)pyrazine-2-carboxamide]",500 to 1000,500 to 1000,–,–,–,–
"CC(=O)c1c(C)c2cnc(Nc3ccc(N4CCN(Cc5cc(N6CCC(=O)NC6=O)ncc5F)CC4)cn3)nc2n(C2CCCC2)c1=O [GT-07480, 1-(4-((4-(6-((6-acetyl-8-cyclopentyl-5-methyl-7-oxo-7,8-dihydropyrido[2,3-d]pyrimidin-2-yl)amino)pyridin-3-yl)piperazin-1-yl)methyl)-5-fluoropyridin-2-yl)dihydropyrimidine-2,4(1H,3H)-dione]",–,–,A (A is defined as 0% ≤ substrate protein remaining % ≤ 80%),A (A is defined as 0% ≤ substrate protein remaining % ≤ 80%),–,–
"CN(C)C(=O)c1cc2cnc(Nc3ccc(N4CCC(N(C)Cc5ccc(C6CCC(=O)NC6=O)cc5)CC4)cn3)nc2n1C1CCCC1 (stereo not shown) [GT-06490, 7-cyclopentyl-2-((5-(4-((4-(2,6-dioxopiperidin-3-yl)benzyl)(methyl)amino)piperidin-1-yl)pyridin-2-yl)amino)-N,N-dimethyl-7H-pyrrolo[2,3-d]pyrimidine-6-carboxamide]",–,–,A (A is defined as 0% ≤ substrate protein remaining % ≤ 80%),B (B is defined as substrate protein remaining % > 80%),–,–
"CN(C)C(=O)c1cc2cnc(Nc3ccc(N4CCN(Cc5cccc(N6CCC(=O)NC6=O)c5)CC4)cn3)nc2n1C1CCCC1 [GT-06341, 7-cyclopentyl-2-((5-(4-(3-(2,4-dioxotetrahydropyrimidin-1(2H)-yl)benzyl)piperazin-1-yl)pyridin-2-yl)amino)-N,N-dimethyl-7H-pyrrolo[2,3-d]pyrimidine-6-carboxamide]",–,–,A (A is defined as 0% ≤ substrate protein remaining % ≤ 80%),A (A is defined as 0% ≤ substrate protein remaining % ≤ 80%),–,–
"CN(C)C(=O)c1cc2cnc(Nc3ccc(N4CCC(N(C)Cc5ccc(N6CCC(=O)NC6=O)cc5)CC4)cn3)nc2n1C1CCCC1 [GT-06491, 7-cyclopentyl-2-((5-(4-((4-(2,4-dioxotetrahydropyrimidin-1(2H)-yl)benzyl)(methyl)amino)piperidin-1-yl)pyridin-2-yl)amino)-N,N-dimethyl-7H-pyrrolo[2,3-d]pyrimidine-6-carboxamide]",–,–,B (B is defined as substrate protein remaining % > 80%),A (A is defined as 0% ≤ substrate protein remaining % ≤ 80%),–,–
"Nc1nc(Nc2ccc(S(=O)(=O)N3CCN(Cc4ccc(N5CCC(=O)NC5=O)nc4)CC3)cc2)nn1C(=O)c1c(F)cccc1F [GT-06754, 1-(5-((4-((4-((5-amino-1-(2,6-difluorobenzoyl)-1H-1,2,4-triazol-3-yl)amino)phenyl)sulfonyl)piperazin-1-yl)methyl)pyridin-2-yl)dihydropyrimidine-2,4(1H,3H)-dione]",–,–,–,–,–,IC50 (MV-4-11; [1]): 500 to 1000 nM; IC50 (CCRF-CEM): 500 to 1000 nM
"NC(=O)c1ncc(N2CCCCC2)nc1Nc1ccc(C2CCN(Cc3ccc(N4CCC(=O)NC4=O)c(F)c3)CC2)cc1 [GT-04788, 3-((4-(1-(4-(2,4-dioxotetrahydropyrimidin-1(2H)-yl)-3-fluorobenzyl)piperidin-4-yl)phenyl)amino)-5-(piperidin-1-yl)pyrazine-2-carboxamide]",100 to 500,100 to 500,–,–,500 to 1000,–
"NC(=O)c1ncc(N2CCCCC2)nc1Nc1ccc(C2CCN(Cc3ccc(C4CCC(=O)NC4=O)c(F)c3)CC2)cc1 (stereo not shown) [GT-04786, 3-((4-(1-(4-(2,6-dioxopiperidin-3-yl)-3-fluorobenzyl)piperidin-4-yl)phenyl)amino)-5-(piperidin-1-yl)pyrazine-2-carboxamide]",100 to 500,500 to 1000,–,–,500 to 1000,–
"CN1CCN([C@@H]2CCCN(c3cnc(C(N)=O)c(Nc4ccc(C5CCN(Cc6ccc(N7CCC(=O)NC7=O)c(F)c6)CC5)cc4)n3)C2)C1=O [GT-04801, (R)-3-((4-(1-(4-(2,4-dioxotetrahydropyrimidin-1(2H)-yl)-3-fluorobenzyl)piperidin-4-yl)phenyl)amino)-5-(3-(3-methyl-2-oxoimidazolidin-1-yl)piperidin-1-yl)pyrazine-2-carboxamide]",100 to 500,100 to 500,–,–,500 to 1000,–
"O=C1CCC(c2ccc(CN3CCC(n4cc(NC(=O)c5cnn6ccc(N7CCOCC7)nc56)c(C(F)F)n4)CC3)cc2)C(=O)N1 (stereo not shown) [GT-03813, N-(3-(difluoromethyl)-1-(1-(4-(2,6-dioxopiperidin-3-yl)benzyl)piperidin-4-yl)-1H-pyrazol-4-yl)-5-morpholinopyrazolo[1,5-a]pyrimidine-3-carboxamide]",–,–,–,–,–,"IC50 (MV-4-11; Table B10, compounds designed based on the IRAK4 inhibitors, MV-4-11 cells, read-out: Inhibitory activity (IC50, nM) on tumor cell proliferation, MV-4-11): 100 to 500 nM; IC50 (SR): 100 to 500 nM"
"NC(=O)c1ncc(N2CCCCC2)nc1Nc1ccc(C2CCN(Cc3ccc(N4CCC(=O)NC4=O)cc3)CC2)cc1 [GT-04789, 3-((4-(1-(4-(2,4-dioxotetrahydropyrimidin-1(2H)-yl)benzyl)piperidin-4-yl)phenyl)amino)-5-(piperidin-1-yl)pyrazine-2-carboxamide]",100 to 500,100 to 500,–,–,500 to 1000,–
"CN1CCN([C@@H]2CCCN(c3cnc(C(N)=O)c(Nc4ccc(C5CCN(Cc6ccc(C7CCC(=O)NC7=O)cc6)CC5)cc4)n3)C2)C1=O (stereo partly drawn) [GT-04798, 3-((4-(1-(4-(2,6-dioxopiperidin-3-yl)benzyl)piperidin-4-yl)phenyl)amino)-5-((R)-3-(3-methyl-2-oxoimidazolidin-1-yl)piperidin-1-yl)pyrazine-2-carboxamide]",500 to 1000,100 to 500,–,–,500 to 1000,–
"Nc1nc(Nc2ccc(S(=O)(=O)N3CCN(Cc4ccc(N5CCC(=O)NC5=O)cc4)CC3)cc2)nn1C(=O)c1c(F)cccc1F [GT-06751, 1-(4-((4-((4-((5-amino-1-(2,6-difluorobenzoyl)-1H-1,2,4-triazol-3-yl)amino)phenyl)sulfonyl)piperazin-1-yl)methyl)phenyl)dihydropyrimidine-2,4(1H,3H)-dione]",–,–,–,–,–,IC50 (MV-4-11; [1]): 500 to 1000 nM; IC50 (CCRF-CEM): 500 to 1000 nM
